# Data from PMC4552634, “A New Set of Chemical Starting Points with Plasmodium falciparum Transmission-Blocking Potential for Antimalarial Drug Discovery” (PLoS ONE, 2015).
# Tested on: P. falciparum stage V gametocytes
# Assay: microbe, parasite or virus in culture
# Parameters: BacTiter-Glo ATP luminescence viability of purified stage V gametocytes in 384-well plates, per cent inhibition versus DMSO
# Settings: Plasmodium falciparum, 48 h, read-out: % Inhibition
row,SMILES,inhibition at 5 µM [%]
1,COc1cccc(C=NNc2cc(C)nc3ccccc23)c1 [TCMDC-142183],-15.9
2,CCn1c2ccccc2c2cc(C=NNc3cc(C)nc4ccccc34)ccc21 [TCMDC-142186],85.3
3,CCOc1ccc2c(NN=Cc3ccccc3OC)cc(C)nc2c1 [TCMDC-142203],87.4
4,CC(C)c1cc(Oc2c(I)cc(CCNCc3ccccc3)cc2I)ccc1O [TCMDC-142300],-73.5
5,COc1ccc2ccccc2c1C=NNc1cc(C)nc2cc(C(F)(F)F)ccc12 [TCMDC-142238],-35
6,CCOc1ccc2c(NN=Cc3c4ccccc4cc4ccccc34)cc(C)nc2c1 [TCMDC-142209],106
7,COc1ccc2c(N/N=C/c3ccc([N+](=O)[O-])cc3)ccnc2c1 [TCMDC-142108],91.3
8,CCCCCCCCNc1c2ccc(Cl)cc2nc2ccc(OC)cc12 [TCMDC-142191],0.773
9,c1ccc2c3c(ccc2c1)Sc1c(ccc2ccccc12)N3 [TCMDC-142267],-92.1
10,Nc1c2c(nc3ccc(Oc4ccc(Cl)cc4)cc13)CCCC2 [TCMDC-142282],92
11,CNc1nc(Nc2ccccc2C)nc2ccccc12 [TCMDC-142325],50.8
12,OC(c1cc(C(F)(F)F)nc2c(F)cccc12)C1CCCCN1 (centres unmarked) [TCMDC-142228],37.8
13,Cc1cc(N/N=C/c2ccccc2[N+](=O)[O-])c2ccc(F)cc2n1 [TCMDC-142168],-45.1
14,CCCC(=O)c1cnc2c(Oc3cc(Cl)ncn3)cccc2c1Nc1ccccc1C [TCMDC-142329],-26
15,CC1=C(C(=O)OCCOCc2ccccc2)C(c2ccccc2C(F)(F)F)C(C(=O)OCCOCc2ccccc2)=C(C)N1 [TCMDC-142290],61.1
16,Cc1cc(N/N=C/c2ccc([N+](=O)[O-])cc2)c2ccc(F)cc2n1 [TCMDC-142170],105
17,COc1ccc2c(NN=Cc3cccc(F)c3)ccnc2c1 [TCMDC-142134],99
18,COc1ccc2ccccc2c1C=NNc1cc(C)nc2c(C)cccc12 [TCMDC-142234],35.2
19,COc1ccc2c(NN=Cc3cccc(Cl)c3)ccnc2c1 [TCMDC-142128],98.7
20,COc1ccc(C=Cc2cc(N)c3ccccc3n2)cc1Br [TCMDC-142285],39.4

row,SMILES,inhibition at 5 µM [%]
1,COc1ccccc1CNc1nc(Nc2ccccc2C)nc2ccccc12 [TCMDC-142330],93.6
2,FC(F)(F)c1ccc2nccc(NN=Cc3cccc(Cl)c3)c2c1 [TCMDC-142148],56
3,N#Cc1ccc(S(=O)(=O)N2C(c3cccc([N+](=O)[O-])c3)C(C(=O)c3ccccc3)N(C3CCCCC3)C2c2cccc([N+](=O)[O-])c2)cc1 (centres unmarked) [TCMDC-142230],43.9
4,CCOc1ccc2c(N/N=C/c3cccc([N+](=O)[O-])c3)cc(C)nc2c1 [TCMDC-142195],115
5,CCN(CC)CCCC(C)Nc1c(-c2ccc(Br)cc2)cnc2ccccc12 (centres unmarked) [TCMDC-142263],26
6,COc1ccc2c(N/N=C/c3ccccc3[N+](=O)[O-])ccnc2c1 [TCMDC-142140],101
7,Cc1ccccc1Nc1cc(Nc2ccccc2C)c2ccccc2n1 [TCMDC-142337],98.8
8,O=[N+]([O-])c1ccccc1C=NNc1ccnc2ccccc12 [TCMDC-142102],-47.5
9,Oc1ccc(Cc2cc(Oc3c(I)cc(CCc4ncc[nH]4)cc3I)ccc2O)cc1 [TCMDC-142306],59.2
10,Cc1[nH]cnc1CSCCNC(N)=NCCCCCCCCN=C(N)NCCSCc1nc[nH]c1C [TCMDC-142301],-5.19
11,Cc1ccccc1Nc1nc(NCCc2ccccc2)nc2ccccc12 [TCMDC-142322],101
12,COc1ccc2c(NN=Cc3cccc(C)n3)cc(-c3ccccc3)nc2c1 [TCMDC-142120],-50.4
13,COc1ccc2nccc(NN=Cc3ccc(N(C)C)cc3)c2c1 [TCMDC-142145],-119
14,COc1ccc2c(NN=Cc3ccccc3)cc(C)nc2c1 [TCMDC-142119],7.88
15,CCCCCC(C)C(C)c1cc(O)c2c3c(c(=O)oc2c1)CN(Cc1ccccc1)CC3 (centres unmarked) [TCMDC-142182],75.7
16,FC(F)(F)c1ccc2nccc(NN=CC=Cc3ccccc3)c2c1 [TCMDC-142153],-25.7
17,COc1cccc2c(NN=Cc3cccc(Cl)c3)ccnc12 [TCMDC-142129],91.8
18,CCCCN(CCCC)C(=O)CC(O)c1cc2c(Cl)cc(Cl)cc2c2cc(C(F)(F)F)ccc12 (centres unmarked) [TCMDC-142317],14.8
19,CCCCOP(=O)(OCCCC)C(=Cc1ccc(O)c2ccccc12)P(=O)(OCCCC)OCCCC [TCMDC-142336],-25.7
20,COc1cccc2c(NN=Cc3cccc(Cl)c3)cc(C)nc12 [TCMDC-142117],27.1

row,SMILES,inhibition at 5 µM [%]
1,Cc1cc(NN=Cc2ccc(F)cc2)c2ccc(C(F)(F)F)cc2n1 [TCMDC-142159],-183
2,CC(C)(C)c1cc([N+](=O)[O-])cc(C(=O)Nc2ccccc2C(F)(F)F)c1O [TCMDC-142293],-4.47
3,O=[N+]([O-])c1cccc(/C=N/Nc2ccnc3ccc(C(F)(F)F)cc23)c1 [TCMDC-142150],7.31
4,Fc1ccc(C2N=C(SCCSC3=NC(c4ccc(F)cc4)C(c4ccc(F)cc4)N3)NC2c2ccc(F)cc2)cc1 (centres unmarked) [TCMDC-142269],-7.65
5,CN(C)c1ccc(C=Cc2ccc3ccccc3n2)c(Cl)c1 [TCMDC-142212],36.3
6,Cc1cc(N/N=C/c2ccccc2[N+](=O)[O-])c2cc(C(F)(F)F)ccc2n1 [TCMDC-142157],4.83
7,CCOC(=O)c1cnc2c(OC)cc(OC)c(Cl)c2c1Nc1cccc(C)c1C [TCMDC-142242],64.1
8,COc1ccc2nccc(NN=Cc3ccc(Cl)cc3)c2c1 [TCMDC-142124],58.2
9,CCOC(=O)c1cnc2c(OC)cc(OC)c(Cl)c2c1Nc1ccccc1 [TCMDC-142240],44.8
10,CC(C)NCC(O)COc1ccc(Cc2ccc(OCC(O)CNC(C)C)cc2)cc1 (centres unmarked) [TCMDC-142221],77
11,COc1ccc(C=Cc2cc(N)c3ccccc3n2)cc1 [TCMDC-142280],97.9
12,Cc1cc(Br)cnc1CCCCNc1cc(=O)c2ccccc2[nH]1 [TCMDC-142316],-5.57
13,COc1ccc(C=NNc2ccnc3ccccc23)c2ccccc12 [TCMDC-142215],-96.9
14,O=C(OCc1ccccn1)c1nc2ccccc2[nH]1 [TCMDC-142313],43.6
15,CCCCCCc1cc(OC)c(OC)cc1C(C)Nc1ccnc2cc(Cl)ccc12 (centres unmarked) [TCMDC-142247],-55.2
16,COc1cccc2c(Nc3ccccc3C)nc(Nc3ccccc3C)nc12 [TCMDC-142321],28.2
17,Cc1cc(NN=Cc2cccc(F)c2)c2cc(F)ccc2n1 [TCMDC-142173],-60.6
18,Fc1ccccc1C=NNc1ccnc2ccccc12 [TCMDC-142101],-64.6
19,COc1ccc2nccc(NN=Cc3cccc(Cl)c3)c2c1 [TCMDC-142125],11.8

# Same assay, conditions: Plasmodium falciparum, 48 h; read-out: % Inhibition
row,SMILES,inhibition at 5 µM [%]
1,CCCCCC(C)C(C)c1cc(O)c2c(c1)OC(C)(C)c1cnccc1-2 (centres unmarked) [TCMDC-142188],-17.5
2,CCOC(=O)CCCN1C(=O)CN=C(c2ccccc2)c2cc(Cl)ccc21 [TCMDC-142274],-8.73
3,CCCCCc1cc(O)c2c(c1)OC(C)(C)c1ccncc1-2 [TCMDC-142255],-24.7
